Results from ChEMBL document CHEMBL5729007, “Triaryl compounds for treatment of PD-L1 diseases” (2022).

Molecular target: Programmed cell death 1 ligand 1 (Homo sapiens, UniProt Q9NZQ7)
Assay: Enzyme-Linked Immunosorbent Assay—ELISA: 96 Well plates were coated with […] of human PD-L1 (obtained from R&D) in PBS overnight at 4° C. The wells were then blocked with 2% BSA in PBS (W/V) with 0.05% TWEEN-20 for 1 hour at 37° C. The plates were washed 3 times with PBS/0.05% TWEEN-20 and the compounds were serial diluted (1:5) in dilution medium and added to the ELISA plates. Human PD-1 and biotin 0.31 μg/mL (ACRO Biosystems) were added and incubated for 1 hour at 37° C. then washed 3 times with PBS/0.05% TWEEN-20. A second block was performed with 2% BSA in PBS (W/V)/0.05% TWEEN-20 for 10 min at 37° C. and the plates were washed 3 times with PBS/0.05% TWEEN-20. Streptavidin-HRP was added for 1 hour at 37° C. then the plates were washed 3 times with PBS/0.05% TWEEN-20. TMB substrate was added and reacted for 20 min at 37° C. A stop solution (2 N aqueous H2SO4) was added. The absorbance was read at 450 nm using a micro-plate spectrophotometer.

Sequence of Programmed cell death 1 ligand 1 (Q9NZQ7 whole entry): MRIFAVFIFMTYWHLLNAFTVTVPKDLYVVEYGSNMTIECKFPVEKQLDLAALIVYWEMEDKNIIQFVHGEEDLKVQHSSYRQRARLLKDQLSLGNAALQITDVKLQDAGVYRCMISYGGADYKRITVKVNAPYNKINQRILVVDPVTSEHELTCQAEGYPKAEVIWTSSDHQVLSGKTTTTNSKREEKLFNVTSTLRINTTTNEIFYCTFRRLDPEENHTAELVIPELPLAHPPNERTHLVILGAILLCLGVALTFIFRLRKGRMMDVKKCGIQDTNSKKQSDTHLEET

Row | SMILES | IC50 [nM]
1 | COc1cc(-c2cccc(-c3cccc(NC(=O)c4cncn(C)c4=O)c3C)c2Cl)cc(F)c1CN[C@@H]1CNC(=O)C1 | < 10
2 | COc1cc(-c2cccc(-c3cccc(NC(=O)c4ccc(OCC(=O)O)cn4)c3C)c2C)cc(F)c1CN | < 10
3 | COc1cc(-c2cccc(-c3cccc(NC(=O)c4cnc(C(N)=O)cn4)c3C)c2C)cc(F)c1CN | < 10
4 | COc1cc(-c2cccc(-c3cccc(NC(=O)c4ccc(C(N)=O)cn4)c3C)c2C)cc(F)c1CN | < 10
5 | COc1cc(-c2cccc(-c3cccc(Nc4nccc5nccnc45)c3C)c2Cl)cc(F)c1CN[C@@H]1CCOC[C@@H]1O | < 10
6 | COc1cc(-c2cccc(-c3cccc(NC(=O)c4cn(C)c(=O)n(C)c4=O)c3C)c2C)cc(F)c1CN(C)CCO | < 10
7 | COc1cc(-c2cccc(-c3cccc(NC(=O)c4cn(C)c(=O)n(C)c4=O)c3F)c2Cl)cc(F)c1CNCC1CCC(=O)N1 (stereo not given) | < 10
8 | COc1cc(-c2cccc(-c3cccc(NC(=O)c4cn(C)c(=O)n(C)c4=O)c3Cl)c2Cl)cc(F)c1CN[C@@H]1CNC(=O)C1 | < 10
9 | COc1cc(-c2cccc(-c3cccc(NC(=O)c4cn(C)c(=O)n(C)c4=O)c3Cl)c2Cl)cc(F)c1CN[C@@H]1CCOC[C@@H]1O | < 10
10 | COc1cc(-c2cccc(-c3cccc(NC(=O)c4cn(C)c(=O)n(C)c4=O)c3C)c2C)cc(F)c1CN | < 10
